# Laboratory results taken from US5652222A, “Selective inhibition of leukemic cell proliferation by bcr-abl antisense oligonucleotides” (Temple University-of The Commonwealth System of Higher …, priority 1993, dated 1997).
# Assays:
# [1] = system: cell line ALL-1 (b1a2 junction); test: Leukemic cell number of Ph1-positive ALL cell line expressing b1a2 junction; assay type: cell-based, human; conditions: 50 μg at time zero, 25 μg/ml at 24 and 48 h; vs control and mismatch-treated cultures (FIG. 6)
# [2] = system: K562; conditions: Caracciolo et al., Science 245; cited from earlier work
# [3] = system: bcr-abl protein; conditions: cited from earlier work
# [4] = system: BV173 cells; test: Clonogenic assay of tissues of leukemic SCID mice; assay type: in vivo, SCID mice (human leukemic cells)
# Procedure: A second assay for leukemic disease comprised a clonogenic assay in semisolid medium. […] By contrast, BV173 cells formed numerous, rapidly growing colonies. To rule out the possibility that the presence of BV173 cells permitted the growth of murine progenitors, mixing experiments were carried out.
# (§1) To determine whether synthetic phosphorothioate oligodeoxynucleotides targeted against the bcr-abl junction of […] cells would modify the disease process in SCID mice. SCID mice were injected with 10^6 BV173 cells. The mice then received 1 mg of sense (ATCAATAAGG AAGCCCTTCAGCG, SEQ ID NO:34) or antisense ([…] ATTGAT, SEQ ID NO:29) b2/a2 bcr-abl phosphorothioate oligodeoxynucleotides (pyrogen leven <1 Eu/mg; 0.2 ml in Iscove modified Dulbecco medium in 5-10 seconds) intravenously for each of 9 consecutive days, beginning either 7 or 21 days after introducing 10^6 BV173 cells. Control mice received the diluent (iscove's modified Dulbecco medium) only. These time points approximate distinct disease stages in humans.
# 10^5 cells were plated in duplicate in 35×10 mm tissue culture dishes (Nunc, Inc., Naperville, Ill.) in HCC-4230 medium (Terry Fox Lab., Vancouver, Canada) supplemented with 2.5 mM L-glutamine, and allowed to grow for 12 days. Plates were scanned with an inverted microscope and total colony number was determined. The results are shown in FIG. 9 (C, untreated mouse; S, sense-treated mouse, AS, antisense-treated mouse).
# [5] = assay type: in vivo, SCID mice; conditions: mice treated with bcr-abl antisense
# Procedure: Severe combined immunodeficient (SCID) mice injected with leukemia cells developed a disease process closely resembling that in humans. […] The cell-associated accumulation of antisense oligomer in various organs reached 4-60 μM, which is more than adequate to inhibit growth of leukemic cells. (See FIG. 7).
# [6] = system: bcr-abl (b2/a2) transcripts; test: RT-PCR of bcr-abl transcripts in tissues of leukemic SCID mice; assay type: in vivo, SCID mice (human leukemic cells)
# Procedure: According to a third assay, the extent of leukemic disease was assessed by chain RT-PCR to monitor the expression of b2/a2 transcripts (assay sensitivity=[…]) in total RNA isolated from bone marrow cells, splenocytes, peripheral blood leukocytes, liver, lung and brain tissues. Depending on the number of BV173 cells injected, various numbers of leukemic cells were detected by clonogenic assay and RT-PCR in murine tissues, 3 and 6 weeks after injection. A few days before the expected death of leukemic SCID mice, approximately 80, 65, and 10% cALLA-positive cells were detected in bone marrow cells, splenocytes and peripheral blood leukocytes, respectively.
# as §1
# At 7 (+7) and 21 (+21) days after injecting SCID mice with 10^6 BV173 cells, single cell suspensions were prepared from various tissues. After lysing red cells with 0.83% NH4 Cl buffered with 0.17 mM Tris-HCl, pH 7.4, total RNA was extracted as described (Chomczynski and Sacchi, Anal. Biochem. 162, 156 (1987)) and the suspension was divided into two equal aliquots. Bcr-abl and β-actin transcripts were reverse-transcribed and amplified with specific primers and Taq polymerase as described by Szczylik et al., Science 253, 562 (1991). Amplification products were separated on a 2% agarose gel, transferred to a nitrocellulose filter and hybridized with a synthetic 40-base c-abl fragment or 20-base β-actinfragment end-labeled with [γ^32 -P]-ATP and polynucleotide kinase. The c-abl probe recognizes an amplified 257-bp sequence containing the bcr-abl junction: the β-actin probe recognizes a 209-bp fragment, contained within the 5' and 3' β-actin primers (Tokunaga et al., Nucleic Acids Res. 14, 2829 (1986)).
# [7] = system: BV173 cells; test: Macroscopic examination / disease state of leukemic SCID mice; assay type: in vivo, SCID mice (human leukemic cells)
# Procedure: Injection of the mice with BV173 cells induces a disease closely resembling that in human leukemia patients.
# as §1
# [8] = system: BV173 cells (b2/a2); test: Proliferation of BV173 cells expressing b2a2 junction; assay type: cell-based, human
# Procedure: Amplification of the bcr-abl junction with a 5' primer corresponding to bcr exon 2, and a 3' primer corresponding to abl exon 2, followed by hybridization to an 18-mer specific for the b2/a2 or the b3/a2 junction identified the b2/a2 breakpoint in these cells (data not shown).
# The sensitivity of the BV173 cells to b2/a2 antisense phosphorothioate oligodeoxynucleotides was assessed. Phosphorothioate oligodeoxynucleotides were prepared on either an Applied Biosystems Model 380B or 390Z Automated Synthesis instrument using conventional phosphoramidite monomers and manufacturer-recommended procedures, which included substitution of tetraethylthiuran (or an equivalent sulfur-donor reagent) for iodine-water-pyridine, […] reversed-phase preparative chromatography, detritylation, and obtaining the final product in the form of its sodium salt, all according to previously published methodology: Zon and Stec, in Oligonucleotides and Analogues A Practical Approach, F. Eckstein, Ed. (Oxford Univerisity Press, Oxford 1991), pp. 87-108; Zon and Geiser, Anti-Cancer Drug Design 6, 539 (1991); Vu and Hirschenbein, Tetrahedron Lett. 32, 3005-3008 (1991).
# BV173 cells were cultured in the presence of phosphorothioate b2/a2 antisense 26-mer CGCTGAAGGG CTTCTTCCT ATTGAT (SEQ ID NO:29), the phosphorothioate sense sequence ATCAATAAGGAAGCCCTTCAGCG (SEQUENCE ID NO:34), or the b3/a2 (SEQ ID NO:31) or b1/a2 (SEQ ID N0:33) phosphorothioate antisense 26-mer. […] The sense oligomer SEQ ID NO:34 gave no inhibition (FIG. 7, -.largecircle.-) in comparison to untreated control cells (FIG. 7, -.quadrature.-).
# [9] = system: BV173 cells; test: Survival of leukemic SCID mice; assay type: in vivo, SCID mice (human leukemic cells); conditions: treatment starting from days +7 or +21 (FIG. 12)
# Description: To determine the lethal dose of BV173 cells in the SCID mice, we injected from 10^3 to 10^7 cells into the tail vein and monitored survival at various times postinjection. Mice injected with 10^7, 10^6, 10^5, or 10^4 BV173 cells died 8-10, 9-12, 13-15, or 14-22 weeks later, respectively, due to leukemia cell growth as confirmed on necroscopy. Spleen weight was about 40 times higher than that in noninjected SCID mice while liver and kidneys had numerous metastases and were enlarged 10-fold as compared to noninjected mice. Mice injected with 10^3 BV173 cells were still alive 35 weeks post implantation, and leukemia was never detected. From this study, 10^6 cells was taken as a lethal dose.
# as §1
# [10] = system: BV173 cells (cALL antigen (CALLA)-positive cells); test: Immunofluorescence / flow cytometry of CALLA-positive cells in tissues of leukemic SCID mice; assay type: in vivo, SCID mice (human leukemic cells)
# Procedure: A first assay comprised an immunofluorescence analysis of cALL antigen (CALLA)-positive cells. All BV173 cells but not normal murine hematopoietic cells express this antigen (assay sensitivity=10^-2). Single cell suspensions were prepared for flow cytometry analysis from peripheral blood, spleen and bone marrow cells of the leukemic SCID mice by centrifugation on a lymphocyte-M gradient (Cedarlane Labs, Ltd., Ontario, Canada). Cells (1×10^5) were stained with the FITC-conjugated mouse anti-CALLA monoclonal antibody (Becton-Dickinson Immunocytometry Systems, San Jose, Calif.) to human CD10 antigen. After staining, cells were washed and analyzed by flow cytometry using the Epics Profile Analyzer (Coulter Electronic).
# as §1
# [11] = from day +21, 26 days after treatment (8 weeks)
substance,measurement,setting,value
SEQ ID NO:9: 18-mer antisense oligonucleotide GAAGGGCTTC TGCGTCTC completely complementary to the b1a2 junction (antisense GAAGGGCTTCTGCGTCTC; chemistry not given here),leukemic cell number,[1],significant reduction in leukemic cell number over the control and mismatch-treated cultures
"SEQ ID NO:27: antisense oligodeoxynucleotide TACTGGCCGC TGAAGGGC complementary to 18 nucleotides of the second exon of c-abl (antisense TACTGGCCGCTGAAGGGC; DNA, backbone and methylation of C not given here)",inhibition of the Ph1-positive cell line K562,[2],inhibition of the Ph^1 -positive cell line K562
same,reducing bcr-abl protein levels,"[3]; Caracciolo et al., Science 245",effective in reducing bcr-abl protein levels
same,specificity for the bcr-abl junction,[3]; hybridization to message from untranslocated abl,"not specific for the bcr-abl junction, as it also hybridizes to the message from untranslocated abl"
"SEQ ID NO:29: b2a2 antisense phosphorothioate 26-mer CGCTGAAGGGCTTCTTCCTT ATTGAT (antisense CGCTGAAGGGCTTCTTCCTTATTGAT; all phosphorothioate, sugars by position and methylation of C not given here)","leukemic colonies, peripheral blood leukocytes","[4]; 1 mg/day i.v. x9 from day +7, killed 26 days after last treatment (6 weeks)",no detectable colonies
same,"leukemic colonies, peripheral blood mononuclear cells","[4]; 1 mg/mouse/day x9 from day +21, 12 days after last treatment (6 weeks), untreated 11.0±8.5",0 colonies
same,"leukemic colonies, spleen","[4]; 1 mg/mouse/day x9 from day +21, 12 days after last treatment (6 weeks), untreated 80.5±12.0",0 colonies
same,"leukemic colonies, bone marrow","[4]; 1 mg/mouse/day x9 from day +21, 26 days after treatment (8 weeks)",not after antisense treatment
same,cell-associated accumulation of antisense oligomer in various organs,[5],4 to 60 µM
same,bcr-abl transcripts in tissues,"[6]; from day +7, 12 days after last treatment (4 weeks), blood, spleen, bone marrow, liver, lung, brain",not in the antisense-treated mouse
same,bcr-abl (b2/a2) transcripts in tissues,"[6]; from day +7, 26 days after last treatment (6 weeks), blood leukocytes, spleen, bone marrow, liver, lung, brain",no bcr-abl (b2/a2) transcripts in the tissues
same,"RT-PCR product (bcr-abl), spleen",[6]; [11],less abundant than in the sense-treated mouse
same,bcr-abl transcripts in tissues,[6]; [11],undetectable after antisense-treatment in each tissue analyzed except spleen
same,"apparently disease-free, days after injection of leukemic cells",[7]; 1 mg/mouse x9 i.v. from day 7,≥ 42 days
same,"apparently disease-free, days after injection of leukemic cells",[7]; 1 mg/mouse x9 i.v. from day 21,≥ 56 days
same,protection from leukemic disease,[7]; SCID mice injected with BV173 cells,protected from the disease
same,"macroscopic examination: metastases / leukemic nodules in liver, kidneys, splenomegaly","[7]; from day +21, 26 days after treatment (8 weeks), FIG. 11",not in antisense-treated animal
same,inhibition of proliferation,"[8]; 3.0 μM, 9 days in culture",100%
same,inhibition of proliferation of BV173 cells,[8]; in comparison to untreated control cells (FIG. 7),Only the b2/a2 antisense oligodeoxynucleotide inhibited the proliferation of BV173 cells
same,mortality / survival outcome,[9],prolonged survival
same,survival after i.v. injection of 10^6 BV173 cells,[9],≥ 16 weeks
same,CALLA+ cells in tissues,"[10]; from day +7, 26 days after last treatment (6 weeks)",No CALLA+ cells were detected
same,CALLA+ cells in tissues,"[10]; from day +21, 12 days after last treatment (6 weeks)",not detected after antisense treatment
same,CALLA+ cells in tissues,[10]; [11],not detected in the antisense-treated mouse
